Assay results as given in patent US20260315434A1, “USE OF GUAIACOL SESQUITERPENE LACTONE DERIVATIVES” (NANJING UNIVERSITY OF CHINESE MEDICINE, priority 2023, published 2026).
In brackets after ≈: the same amount, converted by molar mass.

How the values were obtained:
[1] = system: mouse ear atopic dermatitis; test: MC903-induced atopic dermatitis of the ear, ointment: ear thickness, dermatitis score, lesions; format: in vivo; settings: for Dermatitis Score, ear: 7 days, max score 12; for inhibition rate of ear thickness increase: final day
Experimental: (1) Preparation of Oil Phase: Weigh white petrolatum, light liquid paraffin, glyceryl monostearate, ethylparaben, and cetyl alcohol. Heat to 65° C. while stirring until dissolved. Slowly add the dissolved active pharmaceutical ingredient (API) while continuing to stir until uniformly mixed. Set aside.
(2) Aqueous Phase Preparation: Weigh purified water and Tween 80, heat to 70° C., stir to dissolve, and set aside;
(3) Emulsification: Slowly add the aqueous phase to the oil phase while maintaining 65° C., homogenize, and continue stirring for 30 min;
(4) Cooling: Stop heating, continue stirring, gradually reduce to room temperature, cool to form an ointment, and fill containers.
(§1) Dissolve these substances in a small amount of propylene glycol, then place the resulting solution into the aforementioned pre-cooled blank ointment base. Finally, add water to make the total mass up to 10 g, and grind the mixture thoroughly in a mortar.
(§2) Except for the Normal group, all other groups underwent AD modeling: 20 μL of MC903 solution (also known as calcipotriol, purchased from Shanghai Yuanye Biotechnology Co., Ltd., used for inducing atopic models) was applied to each mouse's ears once daily for 14 consecutive days to induce the atopic dermatitis model. […] Measure ear thickness changes every 2 days using an electronic caliper before modeling and after treatment initiation.
(§3) Skin Lesion Severity Score: Daily skin lesion severity was assessed in mice using the following criteria, primarily encompassing four symptoms: 1) erythema/hemorrhage; 2) dryness; 3) desquamation/erosion; 4) edema. Each symptom was scored from 0 to 3 based on lesion severity: no symptoms=0 points, mild=1 point, moderate=2 points, severe=3 points. […] Higher scores indicated more severe lesions, with a maximum score of 12. Statistical analysis was performed on the data.

[2] = system: inflammatory markers in the ears of AD mice; test: MC903-induced atopic dermatitis of the ear, ointment: mRNA of inflammatory markers; format: in vivo, mouse
Experimental: as §1, §2

dorsal atopic dermatitis = test: MC903-induced atopic dermatitis of the dorsum, ointment: skin thickness, dermatitis score, lesions; format: in vivo, mouse; settings: for inhibition rate of dorsal skin thickness increase: final day
Experimental: as §1
Except for the Normal group, all other groups underwent AD modeling: 48 hours prior to the experiment, hair on the dorsal neck region was meticulously removed using clippers and depilatory cream. Following modeling initiation, 20 μL of MC903 solution was applied once daily to the dorsal neck region for 14 consecutive days to induce the AD model. […] Model and control group mice received daily application of blank ointment. Twenty-four hours after completing the 14-day modeling period, photographs of skin lesions were taken, and skin lesion and blood samples were collected.
as §3

T cells / MDSCs = test: Promotion of T cell proliferation in a co-culture model of MDSCs and T cells; format: cell-based, mouse; settings: for activation at 1 µM: Mus musculus, T-cell, 12 h, read-out: T-cell proliferation rate (%), 1 μM, MDSCs treated 12 hours, co-culture of MDSCs and T cells, compared to the control group
How it was run: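 Bone-marrow MDSCs, after compound treatment, were co-cultured 48 h at 1:1 with CFDA-SE-labelled (10 μM solution), activated splenic T cells. Proliferation of CD3+ T cells was read by flow cytometry.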

MDSCs = test: Inhibition of MDSC chemotaxis (Transwell, tumor-conditioned medium); format: cell-based, mouse; parameters: inhibition of MDSC chemotaxis compared to Arg: dose or concentration left out as unconfirmed
Experimental: Hepa1-6 mouse hepatocellular carcinoma cells were uniformly seeded into 6-well plates. After cells reached confluence, supernatant was aspirated, and 1-1.5 mL fresh medium was added to each well. Following 24 h culture, supernatant was collected, centrifuged at 1600 rpm for 5 min, aspirated, and filtered through a 0.22 μm membrane to obtain tumor-conditioned medium for subsequent use. […] Under sterile conditions, remove the tibia, cut both ends of the bone, and aspirate the bone marrow into a 1 mL syringe. Repeat flushing into a 15 mL centrifuge tube. Centrifuge at 1600 rpm for 5 min to collect bone marrow cells. Wash twice with 1×PBS. […] Count cells, adjust density to 1×10^6 cells/mL, and uniformly seed into 24-well plates at 300 μL per well. […] Centrifuge at 1600 rpm for 5 min, remove supernatant, resuspend cells in 300 μL fresh medium, and place into Transwell chambers. […] Co-culture for 24 h.

CCR2 mRNA = test: Inhibition of CCR2 mRNA level in MDSCs; format: cell-based; settings: Mus musculus, 2 h, read-out: Suppression Rate (inhibition of CCR2 mRNA levels)
Experimental: Under sterile conditions, the tibia was removed, both ends of the bone were cut, and bone marrow was repeatedly flushed into a 15 mL centrifuge tube using a 1 mL syringe filled with culture medium. Centrifuge at 1600 rpm for 5 min to collect bone marrow cells. […] Count cells and adjust density to 1×10^6 cells/mL in complete medium. Seed cells uniformly into 6-well plates at 2 mL per well. […] After incubation, collect cells into centrifuge tubes, centrifuge at 1600 rpm for 5 min, wash once with 1×PBS, and add 500 μL RNA extraction reagent to each tube. After centrifugation to obtain the pellet, add 20 μL DEPC-treated water to each tube to dissolve the pellet. Determine RNA concentration and reverse transcribe to cDNA. Add the cDNA, primers, and […] to a 96-well plate. Centrifuge at 4000 rpm for 5 min, then place in a PCR instrument for detection.

[3] = Water solubility testing of compounds (HPLC); settings: deionized water, water, Water-solubility, 37 °C
[4] = system: inflammatory cytokines (IL-1β, IL-6) in lung tissue; test: LPS-induced acute lung injury, inflammatory cytokines by ELISA; format: in vivo, C57BL/6 mice; settings: 5 mg/kg; LPS 2411.32
Experimental: After a 7-day acclimatization period, mice were used for subsequent experiments.
The abdomen was opened, and the lungs were removed. They were rinsed twice with pre-chilled PBS. […] The remaining tissue was stored at −70° C. for future use.
Data Statistics: All data are expressed as means S.E.M. Statistical differences between groups were analyzed using one-way ANOVA and t-tests in SPSS software. P values less than 0.05 were considered statistically significant.

[5] = system: inflammatory factors (TNF, IL-6, IL-1) in renal tissue; test: Lupus nephritis, renal inflammatory factor mRNA; format: in vivo, MRL/lpr mice; settings: 3 mg/kg, oral, 8 weeks
Experimental: Experimental animals: MRI/MpJ and MRL/lpr mice, female, 10 weeks old, purchased from GemPharmatech LLC. Production license number: SCXK(Su)2023-0009. […] They were acclimated for 7 days before use in experiments.
Oral administration was performed continuously for 8 weeks.
Allow blood to stand at room temperature for 2 hours, then centrifuge at 3000 rpm for 20 minutes. Aspirate the serum, aliquot it, and store at −70° C. for future use. After blood collection, euthanize mice by cervical dislocation. Open the abdominal cavity, remove kidneys, and dissect out perirenal fat and capsules. […] Store remaining tissues at −70° C. for future use.

[6] = system: IgE and inflammatory markers of AD mice; test: MC903-induced atopic dermatitis, oral administration: serum IgE and ear mRNA of inflammatory markers; format: in vivo, mouse; parameters: scale not given here; settings: 5 mg/kg
Experimental: as §2

[7] = system: inflammatory cytokines (TNF, IL-6, IL-1) in lung tissue; test: LPS-induced sepsis, lung inflammatory factor mRNA (Q-PCR); settings: 5 mg/kg
Source text: (§4) They were acclimated for 7 days before experimentation.
(§5) The normal and model groups received equal volumes of solvent (0.5% CMC-Na) via oral gavage.
(§6) Specimen Collection: One hour after the final drug administration, mice were euthanized by cervical dislocation. The abdominal cavity was opened, and the lungs, liver, and kidneys were removed. These organs were rinsed twice with pre-chilled PBS. Tissue samples were excised from the mouse lungs, left hepatic lobe, and kidneys. […] Remaining tissues were stored at −70° C. for future use.
(§7) Accurately weigh 20 mg of kidney, lung, and liver tissue. Rinse with pre-chilled PBS solution, cut into small pieces using ophthalmic scissors, and place into a glass homogenizer. Add 1 mL of Trizol reagent and grind to prepare tissue homogenate. Transfer the homogenate to a RNAse-free 1.5 mL EP tube and lyse on ice for 10 min. Add 200 μL chloroform, vortex vigorously, and let stand on ice for 3-5 min. Centrifuge at 12,000 rpm and 4° C. for 15 min. Carefully transfer the supernatant to a new RNAse-free 1.5 mL EP tube. Add an equal volume of pre-chilled isopropanol, incubate on ice for 30 min, then centrifuge at 12,000 rpm and 4° C. for 10 min. Discard the supernatant. […] Subsequently, dissolve the pellet in 10 μL DEPC-treated water. Dilute 1 μL of the total RNA solution 100-fold and measure the OD values at 260 nm and 280 nm using a full-wavelength microplate reader.
(§8) Following the method described in the kit manual, subsequent experiments were conducted using a 20 μL reverse transcription reaction system:
(§9) Primers were designed based on the nucleotide sequence of the mouse in GenBank and synthesized.
(§10) Perform subsequent experiments using a 20 μL reaction system according to the kit instructions:
(§11) After adding the above reagents to micro reaction tubes, seal them with the cap and place them in the Q-PCR instrument. Set the parameters according to the following reaction conditions to perform the amplification experiment.
(§12) Record the threshold cycle (Ct) values for each group and perform calculation and analysis using the 2^−ΔΔCt method (setting the expression level of the reference gene Gapdh as 1 to correct the expression levels of the target genes).
(§13) Data Statistics: All data are presented as Means±S.E.M. Analysis of variance (ANOVA) was performed to assess the significance of differences. Groups showing significant differences in ANOVA were further compared using one-way ANOVA and Dunnett's test. A P-value <0.05 was considered statistically significant.

[8] = system: inflammatory factors (TNF, IL-6, IL-1) in renal tissue; test: LPS-induced sepsis, renal inflammatory factor mRNA (Q-PCR); settings: 5 mg/kg
Source text: as §4, §5, §6, §7, §8, §9, §10, §11, §12, §13

[9] = system: inflammatory factors (TNF, IL-6, IL-1) in liver tissue; test: LPS-induced sepsis, hepatic inflammatory factor mRNA (Q-PCR); settings: 5 mg/kg
Source text: as §4, §5, §6, §7, §8, §9, §10, §11, §12, §13

tumor cells = settings: in vitro cell models, result in words; cited from earlier work
[10] = system: Hepa1-6 transplanted tumor; settings: 30 mg/kg i.p., 14 consecutive days; cited from earlier work
[11] = system: HepG2 and Huh7 HCC cell transplanted tumor; settings: HepG2 and Huh7 transplanted tumor models; cited from earlier work
[12] = Mus musculus, read-out: Suppression Rate (MDSC chemotaxis)

## C=C1C(=O)O[C@@H]2[C@@H]3[C@]4(CC[C@@]3(C)O)C[C@]4(C)CC[C@@H]12 [Compound 1]
[1]; 0.01% ointment
  Dermatitis Score, ear: 3.50 ± 0.22
  inhibition rate of ear thickness increase: 71%
[1]; 0.01%, 0.1%, 1% ointment
  AD-like skin lesions on the ears: significantly alleviated
[1]; 0.1% ointment
  inhibition rate of ear thickness increase: 71%
[1]; 1% ointment
  inhibition rate of ear thickness increase: 80%
[2]; 0.01% ointment
  I113 mRNA expression, ear: 3.30 ± 0.47
[2]; 0.1% ointment
  I131 mRNA expression, ear: 1.64 ± 0.25
[2]; 1% ointment
  I131 mRNA expression, ear: 1.10 ± 0.19
Dorsal atopic dermatitis; 0.01%, 0.1%, 1% ointment
  AD-like skin lesions on the backs: significantly alleviated
Dorsal atopic dermatitis; 0.1% ointment, 7 days, max score 12
  Dermatitis Score, back: 2.50 ± 0.22
Dorsal atopic dermatitis; 0.01% ointment
  inhibition rate of dorsal skin thickness increase: 66%
Dorsal atopic dermatitis; 0.1% ointment
  inhibition rate of dorsal skin thickness increase: 72%
Dorsal atopic dermatitis; 1% ointment
  inhibition rate of dorsal skin thickness increase: 83%
T cells / MDSCs; 1 μM, result in words
  T cell proliferation in MDSC-T cell co-culture: significantly enhanced T-cell proliferation
T cells / MDSCs
  activation at 1 µM: > 40%
MDSCs; [12]
  inhibition at 1 µM: 42.3%
  inhibition at 10 µM: 83.3%
MDSCs; result in words
  inhibition of MDSC chemotaxis compared to Arg: superior inhibition rates
CCR2 mRNA
  inhibition at 1 µM: 35.2%
  inhibition at 10 µM: 76.5%
[3]
  solubility: 1.14 mg/mL (≈ 4.35 mM)

## C[C@@H]1C[C@H]2[C@@H]3CCC4=CC(=O)C=C[C@]4(C)[C@@]3(F)[C@@H](O)C[C@]2(C)[C@@]1(O)C(=O)CO [Dex, Dexamethasone, reference compound]
[4]
  IL-1β: 1873.00 ± 86.52 pg/mL
[5]
  Il1 mRNA expression, kidney: 3.47 ± 0.35
  Il6 mRNA expression, kidney: 1.12 ± 0.24
  Tnf mRNA expression, kidney: 1.94 ± 0.30
[1]; 1% ointment
  Dermatitis Score, ear: 3.50 ± 0.22
[2]; 1% ointment
  I14 mRNA expression, ear: 1.35 ± 0.30
  I113 mRNA expression, ear: 1.91 ± 0.39
  I131 mRNA expression, ear: 1.86 ± 0.44
  Il1 mRNA expression, ear: 12.69 ± 4.22
  TSLP mRNA expression, ear: 1.30 ± 0.17
[6]
  I14 mRNA expression, ear: 2.59 ± 0.38
  I113 mRNA expression, ear: 1.89 ± 0.20
  I131 mRNA expression, ear: 2.06 ± 0.20
[7]; LPS 19.01
  Il1 mRNA expression, lung: 7.20 ± 0.36
[7]; LPS 20.34
  Il6 mRNA expression, lung: 9.88 ± 0.80
[8]; LPS 7.99
  Il1 mRNA expression, kidney: 6.05 ± 1.03
[8]; LPS 8.80
  Il6 mRNA expression, kidney: 5.76 ± 0.72
[9]; LPS 11.34
  Il6 mRNA expression, liver: 4.27 ± 1.33
[9]; LPS 11.52
  Il1 mRNA expression, liver: 7.54 ± 0.70

## C=C1C(=O)O[C@H]2[C@H]1CCC(C)=C1CC[C@@](C)(O)[C@@H]12 [MCL, Micheliolide]
T cells / MDSCs
  activation at 1 µM: 20 to 40%
Tumor cells
  IC50, tumor cell growth inhibition: in the micromolar range
[10]
  tumor weight inhibition rate: 50%
[11]
  effective dose, intraperitoneal: 25 mg/kg
